Patent US8455475B2 (Gruenenthal GmbH, priority 2009, dated 2013)

biological target: T1, rat B1R (bradykinin receptor 1) (Rattus norvegicus, UniProt P97583); experiment: FLIPR Ca2+ assay (Fluo-4) on CHO K1 cells stably transfected with the B1R gene of the rat (rB1R cells): % inhibition at 10 μM / IC50, agonist Des-Arg9-bradykinin; format: cell-based; conditions: CHO-K1, rat B1R
T1 construct: expressed in transfected cells; host or cells: CHO K1 cells
T1 sequence (P97583 1-337): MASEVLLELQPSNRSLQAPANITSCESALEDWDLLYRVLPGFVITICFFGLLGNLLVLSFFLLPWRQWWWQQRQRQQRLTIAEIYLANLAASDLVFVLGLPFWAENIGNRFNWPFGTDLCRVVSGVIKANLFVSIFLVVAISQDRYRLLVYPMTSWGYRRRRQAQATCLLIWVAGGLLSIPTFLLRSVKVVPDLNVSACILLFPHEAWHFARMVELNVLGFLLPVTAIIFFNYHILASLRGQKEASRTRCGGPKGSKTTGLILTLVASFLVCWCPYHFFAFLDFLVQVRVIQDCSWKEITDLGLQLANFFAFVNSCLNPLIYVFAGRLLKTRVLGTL
How it was run: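 Using a two-addition FLIPR protocol, compound (10 μM for % values; concentration series for IC50) was preincubated 10–20 min with Fluo-4-loaded B1R-expressing CHO K1 cells before EC80 agonist challenge. Suppression of Ca2+ inflow, read as peak fluorescence, is expressed relative to maximum achievable inhibition; duplicate/triplicate, ≥2 independent experiments.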

inhibition at 10 µM [%]	Structure (SMILES)
67	O=C(NC1CCc2ccc(C(=O)N3CCC4(CCN(Cc5ccc6ncccc6c5)CC4)C3)cc21)c1cc(C(F)(F)F)ccc1Cl (stereo not shown) [IND_CC-684, 2-Chloro-N-[6-[8-(quinolin-6-yl-methyl)-2,8-diazaspiro[4.5]decane-2-carbonyl]-2,3-dihydro-1H-inden-1-yl]-5-(trifluoromethyl)-benzamide]
68	O=C(NC1CCc2ccc(C(=O)N3CCC4(CCN(Cc5ccc6nccnc6c5)CC4)C3)cc21)c1cc(C(F)(F)F)ccc1Cl (stereo not shown) [IND_CC-685, 2-Chloro-N-[6-[8-(quinoxalin-6-yl-methyl)-2,8-diazaspiro[4.5]decane-2-carbonyl]-2,3-dihydro-1H-inden-1-yl]-5-(trifluoromethyl)-benzamide]
69	Cn1nnc2cc(CN3CCC4(CC3)CCN(C(=O)c3ccc5c(c3)C(NC(=O)c3cc(C(F)(F)F)ccc3Cl)CC5)C4)ccc21 (stereo not shown) [IND_CC-686, 2-Chloro-N-[6-[8-[(1-methyl-1H-benzotriazol-5-yl)-methyl]-2,8-diazaspiro[4.5]-decane-2-carbonyl]-2,3-dihydro-1H-inden-1-yl]-5-(trifluoromethyl)-benzamide]
76	CC(C)CN1CCC2(CC1)CCN(C(=O)c1ccc3c(c1)C(NC(=O)c1cc(C(F)(F)F)ccc1Cl)CC3)C2 (stereo not shown) [IND_CC-687, 2-Chloro-N-[6-[8-(2-methyl-propyl)-2,8-diazaspiro[4.5]decane-2-carbonyl]-2,3-dihydro-1H-inden-1-yl]-5-(trifluoromethyl)-benzamide]
88	CCC(CC)CN1CCC2(CC1)CCN(C(=O)c1ccc3c(c1)C(NC(=O)c1cc(C(F)(F)F)ccc1Cl)CC3)C2 (stereo not shown) [IND_CC-688, 2-Chloro-N-[6-[8-(2-ethyl-butyl)-2,8-diazaspiro[4.5]decane-2-carbonyl]-2,3-dihydro-1H-inden-1-yl]-5-(trifluoromethyl)-benzamide]
55	O=C(NC1CCc2ccc(C(=O)N3CCC4(CCN(CC5CCCCC5)CC4)C3)cc21)c1cc(C(F)(F)F)ccc1Cl (stereo not shown) [IND_CC-689, 2-Chloro-N-[6-[8-(cyclohexyl-methyl)-2,8-diazaspiro[4.5]decane-2-carbonyl]-2,3-dihydro-1H-inden-1-yl]-5-(trifluoromethyl)-benzamide]
85	O=C(NC1CCc2ccc(C(=O)N3CCC4(CCN(CCc5ccccc5)CC4)C3)cc21)c1cc(C(F)(F)F)ccc1Cl (stereo not shown) [IND_CC-690, 2-Chloro-N-[6-(8-phenethyl-2,8-diazaspiro[4.5]decane-2-carbonyl)-2,3-dihydro-1H-inden-1-yl]-5-(trifluoromethyl)-benzamide]
95	O=C(NC1CCc2ccc(C(=O)N3CCC4(CCN(CCCc5cccc(F)c5)CC4)C3)cc21)c1cc(C(F)(F)F)ccc1Cl (stereo not shown) [IND_CC-691, 2-Chloro-N-[6-[8-[3-(3-fluorophenyl)-propyl]-2,8-diazaspiro[4.5]decane-2-carbonyl]-2,3-dihydro-1H-inden-1-yl]-5-(trifluoromethyl)-benzamide]
99	O=C(NC1CCc2ccc(C(=O)N3CCC4(CCN(CCCc5ccc(F)cc5)CC4)C3)cc21)c1cc(C(F)(F)F)ccc1Cl (stereo not shown) [IND_CC-692, 2-Chloro-N-[6-[8-[3-(4-fluorophenyl)-propyl]-2,8-diazaspiro[4.5]decane-2-carbonyl]-2,3-dihydro-1H-inden-1-yl]-5-(trifluoromethyl)-benzamide]
68	CCn1cc(CN2CCC3(CC2)CCN(C(=O)c2ccc4c(c2)C(NC(=O)c2cc(C(F)(F)F)ccc2Cl)CC4)CC3)c(C)n1 (stereo not shown) [IND_CC-693, 2-Chloro-N-[6-[9-[(1-ethyl-3-methyl-1H-pyrazol-4-yl)-methyl]-3,9-diazaspiro[5.5]-undecane-3-carbonyl]-2,3-dihydro-1H-inden-1-yl]-5-(trifluoromethyl)-benzamide]
